Source: ChEMBL document CHEMBL4020788, “Synthesis, SAR and molecular docking studies of benzo[d]thiazole-hydrazones as potential antibacterial and antifungal agents” (2017)
The source made the active and inactive calls. No cut-off for these calls is given here.

Key:
Assay type in all cases: functional
Staphylococcus aureus [1] = assay: Antibacterial activity against methicillin resistant Staphylococcus aureus MRSA090 at 50 ug/ml after 24 hrs by agar well diffusion method
Fusarium verticillioides [2] = assay: Antifungal activity against Fusarium moniliforme at 75 ug/ml after 48 hrs by agar well diffusion method
Fusarium oxysporum [3] = assay: Antifungal activity against Fusarium oxysporum at 25 ug/ml after 48 hrs by agar well diffusion method
Fusarium oxysporum [4] = assay: Antifungal activity against Fusarium oxysporum at 100 ug/ml after 48 hrs by agar well diffusion method
Bacillus subtilis [5] = assay: Antibacterial activity against Bacillus subtilis at 50 ug/ml after 24 hrs by agar well diffusion method
Fusarium oxysporum [6] = assay: Antifungal activity against Fusarium oxysporum at 50 ug/ml after 48 hrs by agar well diffusion method
Fusarium oxysporum [7] = assay: Antifungal activity against Fusarium oxysporum at 75 ug/ml after 48 hrs by agar well diffusion method
Staphylococcus aureus [8] = assay: Antibacterial activity against methicillin resistant Staphylococcus aureus MRSA090 at 25 ug/ml after 24 hrs by agar well diffusion method
Fusarium verticillioides [9] = assay: Antifungal activity against Fusarium moniliforme at 25 ug/ml after 48 hrs by agar well diffusion method
Klebsiella pneumoniae [10] = assay: Antibacterial activity against Klebsiella pneumoniae at 100 ug/ml after 24 hrs by agar well diffusion method
Fusarium verticillioides [11] = assay: Antifungal activity against Fusarium moniliforme at 100 ug/ml after 48 hrs by agar well diffusion method
Staphylococcus aureus [12] = assay: Antibacterial activity against Staphylococcus aureus at 25 ug/ml after 24 hrs by agar well diffusion method
Staphylococcus aureus [13] = assay: Antibacterial activity against Staphylococcus aureus at 75 ug/ml after 24 hrs by agar well diffusion method
Aspergillus niger [14] = assay: Antifungal activity against Aspergillus niger at 75 ug/ml after 48 hrs by agar well diffusion method
Staphylococcus aureus [15] = assay: Antibacterial activity against methicillin resistant Staphylococcus aureus MRSA090 at 75 ug/ml after 24 hrs by agar well diffusion method
Klebsiella pneumoniae [16] = assay: Antibacterial activity against Klebsiella pneumoniae at 50 ug/ml after 24 hrs by agar well diffusion method
Bacillus subtilis [17] = assay: Antibacterial activity against Bacillus subtilis at 25 ug/ml after 24 hrs by agar well diffusion method
Staphylococcus aureus [18] = assay: Antibacterial activity against Staphylococcus aureus at 100 ug/ml after 24 hrs by agar well diffusion method
Bacillus subtilis [19] = assay: Antibacterial activity against Bacillus subtilis at 75 ug/ml after 24 hrs by agar well diffusion method
Escherichia coli [20] = assay: Antibacterial activity against Escherichia coli at 75 ug/ml after 24 hrs by agar well diffusion method
Aspergillus niger [21] = assay: Antifungal activity against Aspergillus niger at 100 ug/ml after 48 hrs by agar well diffusion method
Escherichia coli [22] = assay: Antibacterial activity against Escherichia coli at 25 ug/ml after 24 hrs by agar well diffusion method
Staphylococcus aureus [23] = assay: Antibacterial activity against Staphylococcus aureus at 50 ug/ml after 24 hrs by agar well diffusion method
Fusarium verticillioides [24] = assay: Antifungal activity against Fusarium moniliforme at 50 ug/ml after 48 hrs by agar well diffusion method
Klebsiella pneumoniae [25] = assay: Antibacterial activity against Klebsiella pneumoniae at 75 ug/ml after 24 hrs by agar well diffusion method
Escherichia coli [26] = assay: Antibacterial activity against Escherichia coli at 100 ug/ml after 24 hrs by agar well diffusion method
Klebsiella pneumoniae [27] = assay: Antibacterial activity against Klebsiella pneumoniae at 25 ug/ml after 24 hrs by agar well diffusion method
Staphylococcus aureus [28] = assay: Antibacterial activity against methicillin resistant Staphylococcus aureus MRSA090 at 100 ug/ml after 24 hrs by agar well diffusion method
Aspergillus niger [29] = assay: Antifungal activity against Aspergillus niger at 25 ug/ml after 48 hrs by agar well diffusion method
Aspergillus niger [30] = assay: Antifungal activity against Aspergillus niger at 50 ug/ml after 48 hrs by agar well diffusion method
Bacillus subtilis [31] = assay: Antibacterial activity against Bacillus subtilis at 100 ug/ml after 24 hrs by agar well diffusion method
Escherichia coli [32] = assay: Antibacterial activity against Escherichia coli at 50 ug/ml after 24 hrs by agar well diffusion method

Row | Structure (SMILES) | diameter of the inhibition zone (DIZ) (Fusarium verticillioides [2]) | diameter of the inhibition zone (DIZ) (Fusarium oxysporum [3]) | diameter of the inhibition zone (DIZ) (Fusarium oxysporum [4]) | diameter of the inhibition zone (DIZ) (Fusarium oxysporum [6]) | diameter of the inhibition zone (DIZ) (Fusarium oxysporum [7]) | diameter of the inhibition zone (DIZ) (Fusarium verticillioides [9]) | diameter of the inhibition zone (DIZ) (Fusarium verticillioides [11]) | diameter of the inhibition zone (DIZ) (Staphylococcus aureus [12]) | diameter of the inhibition zone (DIZ) (Staphylococcus aureus [13]) | diameter of the inhibition zone (DIZ) (Aspergillus niger [14]) | diameter of the inhibition zone (DIZ) (Klebsiella pneumoniae [16]) | diameter of the inhibition zone (DIZ) (Staphylococcus aureus [18]) | diameter of the inhibition zone (DIZ) (Aspergillus niger [21]) | diameter of the inhibition zone (DIZ) (Staphylococcus aureus [23]) | diameter of the inhibition zone (DIZ) (Fusarium verticillioides [24]) | diameter of the inhibition zone (DIZ) (Klebsiella pneumoniae [27]) | diameter of the inhibition zone (DIZ) (Aspergillus niger [29]) | diameter of the inhibition zone (DIZ) (Aspergillus niger [30]) | further results
1 | Cc1cccc2nc(N/N=C/CC(C)C)sc12 | inactive | inactive | inactive | inactive | inactive | inactive | inactive | inactive | inactive | inactive | inactive | inactive | inactive | inactive | inactive | inactive | inactive | inactive | diameter of the inhibition zone (DIZ) (Staphylococcus aureus [1]): inactive; diameter of the inhibition zone (DIZ) (Bacillus subtilis [5]): inactive; diameter of the inhibition zone (DIZ) (Staphylococcus aureus [8]): inactive; diameter of the inhibition zone (DIZ) (Klebsiella pneumoniae [10]): inactive; diameter of the inhibition zone (DIZ) (Staphylococcus aureus [15]): inactive; diameter of the inhibition zone (DIZ) (Bacillus subtilis [17]): inactive; diameter of the inhibition zone (DIZ) (Bacillus subtilis [19]): inactive; diameter of the inhibition zone (DIZ) (Escherichia coli [20]): inactive; diameter of the inhibition zone (DIZ) (Escherichia coli [22]): inactive; diameter of the inhibition zone (DIZ) (Klebsiella pneumoniae [25]): inactive; diameter of the inhibition zone (DIZ) (Escherichia coli [26]): inactive; diameter of the inhibition zone (DIZ) (Staphylococcus aureus [28]): inactive; diameter of the inhibition zone (DIZ) (Bacillus subtilis [31]): inactive; diameter of the inhibition zone (DIZ) (Escherichia coli [32]): inactive
2 | Cc1cccc2nc(N/N=C/c3ccc(O)cc3Br)sc12 | inactive | inactive | inactive | inactive | inactive | inactive | inactive | inactive | inactive | inactive | inactive | inactive | inactive | inactive | inactive | inactive | inactive | inactive | zone of inhibition at 50 µg/mL (Staphylococcus aureus [1]; MRSA090, 24 h, read-out: DIZ): 11 mm; zone of inhibition at 50 µg/mL (Bacillus subtilis [5]; read-out: DIZ): 11 mm; zone of inhibition at 25 µg/mL (Staphylococcus aureus [8]; MRSA090, 24 h, read-out: DIZ): 7 mm; zone of inhibition at 100 µg/mL (Klebsiella pneumoniae [10]; read-out: DIZ): 14 mm; zone of inhibition at 75 µg/mL (Staphylococcus aureus [15]; MRSA090, 24 h, read-out: DIZ): 14 mm; zone of inhibition at 25 µg/mL (Bacillus subtilis [17]; read-out: DIZ): 7 mm; zone of inhibition at 75 µg/mL (Bacillus subtilis [19]; read-out: DIZ): 13 mm; zone of inhibition at 75 µg/mL (Escherichia coli [20]; read-out: DIZ): 11 mm; zone of inhibition at 25 µg/mL (Escherichia coli [22]; read-out: DIZ): 6 mm; zone of inhibition at 75 µg/mL (Klebsiella pneumoniae [25]; read-out: DIZ): 11 mm; zone of inhibition at 100 µg/mL (Escherichia coli [26]; read-out: DIZ): 16 mm; zone of inhibition at 100 µg/mL (Staphylococcus aureus [28]; MRSA090, 24 h, read-out: DIZ): 17 mm; zone of inhibition at 100 µg/mL (Bacillus subtilis [31]; read-out: DIZ): 15 mm; zone of inhibition at 50 µg/mL (Escherichia coli [32]; read-out: DIZ): 9 mm
